This passage reports MIC results from ChEMBL document CHEMBL1155480, “Selective one-pot multicomponent synthesis and anti-tubercular evaluation of 5-(aryl/cyclohexylsulfanyl)-2-alkoxy-4,6-diarylnicotinonitriles” (2010).

≈ marks a conversion by molar mass, not a printed value.

The test concerns Mycobacterium tuberculosis. Kind of test: Antimycobacterial activity against Mycobacterium tuberculosis H37Rv by agar dilution method. In kind it is functional. On the technique in general: In agar dilution the substance is mixed into plates at graded concentrations.
In the case of `CCOc1nc(-c2ccc(Cl)cc2)c(Sc2ccc(OC)cc2)c(-c2ccc(N(C)C)cc2)c1C#N`, the MIC amounted to 48.5 µM (≈ 25 µg/mL). `CCOc1nc(-c2ccc(Cl)cc2)c(Sc2ccc(Cl)cc2)c(-c2ccccc2)c1C#N` yielded a minimal inhibitory concentration (MIC) of 13.1 µM (≈ 6.25 µg/mL). Regarding `CCOc1nc(-c2ccc(Cl)cc2)c(Sc2ccc(C)cc2)c(-c2ccccc2)c1C#N`, the MIC was found to be 54.8 µM (≈ 25 µg/mL).

The compound `CCOc1nc(-c2ccc(Br)cc2)c(Sc2ccc(Cl)cc2)c(-c2ccc(N(C)C)cc2)c1C#N` came in with an MIC of 5.6 µM (≈ 3.16 µg/mL). `COc1nc(-c2ccccc2)c(Sc2ccc(Cl)cc2)c(-c2ccc(N(C)C)cc2)c1C#N` showed an MIC of 26.5 µM (≈ 12.5 µg/mL).

For `CCOc1nc(-c2ccc(Cl)cc2)c(SC2CCCCC2)c(-c2ccc(C)cc2)c1C#N`, the MIC was found to be 27 µM (≈ 12.5 µg/mL). In the case of `CCOc1nc(-c2ccc([N+](=O)[O-])cc2)c(SC2CCCCC2)c(-c2ccccc2)c1C#N`, the minimal inhibitory concentration (MIC) came to 6.8 µM (≈ 3.13 µg/mL). For the compound `COc1nc(-c2ccc(Cl)cc2)c(SC2CCCCC2)c(-c2ccc(Cl)cc2)c1C#N`, the minimal inhibitory concentration (MIC) is 13.3 µM (≈ 6.24 µg/mL).

For `COc1nc(-c2ccc(Cl)cc2)c(SC2CCCCC2)c(-c2ccc(N(C)C)cc2)c1C#N`, it took 13.1 µM (≈ 6.26 µg/mL) to inhibit growth (MIC).

`CCOc1nc(-c2ccc(Cl)cc2)c(Sc2ccc(C)cc2)c(-c2ccc(OC)cc2)c1C#N` displayed a minimum inhibitory concentration (MIC) of 51.3 µM (≈ 25 µg/mL). Next, `COc1nc(-c2ccc(Cl)cc2)c(Sc2ccc(Cl)cc2)c(-c2ccccc2)c1C#N`: 27.1 µM (≈ 12.6 µg/mL); `CCOc1nc(-c2ccccc2)c(SC2CCCCC2)c(-c2ccccc2)c1C#N`: 25 µM (≈ 10.4 µg/mL).

As for `CCOc1nc(-c2ccc(Cl)cc2)c(SC2CCCCC2)c(-c2ccccc2)c1C#N`, the MIC came to 27.8 µM (≈ 12.5 µg/mL). `CCOc1nc(-c2ccc(Cl)cc2)c(SC2CCCCC2)c(-c2ccc(Cl)cc2)c1C#N` gave a minimal inhibitory concentration (MIC) of 6.5 µM (≈ 3.14 µg/mL). In the case of `CCOc1nc(-c2ccc(C)cc2)c(SC2CCCCC2)c(-c2ccc(N(C)C)cc2)c1C#N` it was 26.5 µM (≈ 12.5 µg/mL). `CCOc1nc(-c2ccc(Cl)cc2)c(Sc2ccccc2)c(-c2ccc(Cl)cc2)c1C#N` came in with a minimal inhibitory concentration (MIC) of 26.2 µM (≈ 12.5 µg/mL). In the case of `CCOc1nc(-c2ccc(OC)cc2)c(Sc2ccc(Cl)cc2)c(-c2ccc(N(C)C)cc2)c1C#N` it was 24.2 µM (≈ 12.5 µg/mL); in that of `CCOc1nc(-c2ccc([N+](=O)[O-])cc2)c(SC2CCCCC2)c(-c2ccc(N(C)C)cc2)c1C#N`, 12.5 µM (≈ 6.28 µg/mL). As for `CCOc1nc(-c2ccc(Cl)cc2)c(SC2CCCCC2)c(-c2ccc(N(C)C)cc2)c1C#N`, the minimal inhibitory concentration (MIC) turned out to be 25.4 µM (≈ 12.5 µg/mL). The compound `COc1nc(-c2ccc(Cl)cc2)c(SC2CCCCC2)c(-c2ccccc2)c1C#N` registered an MIC of 57.6 µM (≈ 25.1 µg/mL).

The compound `COc1nc(-c2ccc(Cl)cc2)c(SC2CCCCC2)c(-c2ccccc2Cl)c1C#N` registered a minimum inhibitory concentration (MIC) of 13.3 µM (≈ 6.24 µg/mL). Regarding `CCOc1nc(-c2ccc(Cl)cc2)c(Sc2ccccc2)c(-c2ccc(N(C)C)cc2)c1C#N`, the minimal inhibitory concentration (MIC) is more than 51.4 µM. The compound `CCOc1nc(-c2ccc(Cl)cc2)c(Sc2ccc(C)cc2)c(-c2ccc(Cl)cc2)c1C#N` showed an MIC of 25.5 µM (≈ 12.5 µg/mL). On to `COc1nc(-c2ccccc2)c(Sc2ccc(Cl)cc2)c(-c2ccc(Cl)cc2)c1C#N`, for which inhibition of growth (MIC) required 27 µM (≈ 12.5 µg/mL). As for `COc1nc(-c2ccc(Cl)cc2)c(Sc2ccc(Cl)cc2)c(-c2ccc(N(C)C)cc2)c1C#N`, inhibition of growth (MIC) required 12.4 µM (≈ 6.28 µg/mL). In turn, `CCOc1nc(-c2ccc(Cl)cc2)c(Sc2ccc(C)cc2)c(-c2ccc(N(C)C)cc2)c1C#N` came in with a minimal inhibitory concentration (MIC) of more than 50 µM. Compound `COc1nc(-c2ccc(Cl)cc2)c(Sc2ccc(Cl)cc2)c(-c2ccc(Cl)cc2)c1C#N` had a minimal inhibitory concentration (MIC) of 3.1 µM (≈ 1.54 µg/mL). For the compound `COc1ccc(-c2c(C#N)c(OC)nc(-c3ccc(Cl)cc3)c2Sc2ccc(Cl)cc2)cc1`, the MIC turned out to be 25.4 µM (≈ 12.5 µg/mL). For the compound `COc1ccc(-c2c(C#N)c(OC)nc(-c3ccc(Cl)cc3)c2SC2CCCCC2)cc1`, the minimum inhibitory concentration (MIC) amounted to 26.9 µM (≈ 12.5 µg/mL). Consider `COc1nc(-c2ccc(Cl)cc2)c(SC2CCCCC2)c(-c2ccc(C)cc2)c1C#N`, for which 28 µM (≈ 12.6 µg/mL) was the least that counted as inhibitory (MIC). `CC[C@@H](CO)NCCN[C@@H](CC)CO` [ETHAMBUTOL] yielded an MIC of 7.6 µM (≈ 1.55 µg/mL). As to `NNC(=O)c1ccncc1` [ISONIAZID], inhibition of growth (MIC) required 0.4 µM (≈ 0.0549 µg/mL).

In turn, `NC(=O)c1cnccn1` [PYRAZINAMIDE] showed an MIC of 50.8 µM (≈ 6.25 µg/mL).

Broadly, the MIC is the least concentration at which growth counts as inhibited.
